The results in this text go back to patent publication US20250019344A1, “CREATINE CARBONATE AND METHODS OF PRODUCTION AND USES” (ThermoLife International, LLC, priority 2023, published 2025).

Holding throughout (assay type): in vivo, human
Data set [1] can be described thus: Knee extension exercise at 80% maximum weight after creatine supplementation. The settings on record: at end of supplementation, 20 g once per day with 1000 ml water; usual 6 extensions (control). The source says:
(§1) At the end on day 5, the subject was able to perform 8 knee extensions at 80% maximum weight (200 lbs.). This was 2 more than their usual 6 extensions with this weight (control). So, creatine supplementation with creatine monohydrate improved the subject's physical performance though with gastrointestinal side effects.
(§2) After a washout period of 14 days, where the subject ingested no creatine supplements, they began a second period of creatine supplementation with 20 g creatine carbonate, also taken once per day with 1000 ml water. […] At the end of the creatine supplementation with creatine carbonate, the subject again evaluated the effect of creatine supplementation with knee extension exercises at 80% maximum weight (200 lbs.). They performed 10 extensions, which was better than either the control or after 5 days of creatine monohydrate supplementation.

Data set [2] in a line: Blood lactate after treadmill exercise (Heartscare C1 lactate monitoring system). The settings on record: person; treadmill 5 miles per hour for 10 minutes, 60 minutes after ingesting 10 g; without supplement 8.1 mmol/L. The method, then: A recreationally active person used the treadmill at 5 miles per hour for 10 minutes and measured their lactate levels using a Heartscare C1 lactate monitoring system. Their blood lactate measured at 8.1 mmol/L. After a two-day washout period, they repeated the same treadmill exercise 60 minutes after ingesting 10 g creatine carbonate. Their blood lactate measured at 7.1 mmol/L. Thus, even without creatine loading, creatine carbonate can reduce lactate production from exercise, as measured by blood lactate level.

A short description of data set [3]: Gastrointestinal tolerability after oral creatine supplementation in a subject. The settings on record: for gastrointestinal side effects: 20 g once per day with 1000 ml of water, monohydrate for 5 consecutive days, carbonate after 14 days washout. The method, then: A subject, trained, was administered 5 g creatine carbonate and monitored for any gastrointestinal tract symptoms. […] In contrast, the subject would develop a bloated stomach with creatine supplements currently on the market.
as §1, §2

In the case of `CN(CC(=O)O)C(=N)N.O=C(O)O` [creatine carbonate], the “knee extensions performed at 80% maximum weight (200 lbs.)” value in data set [1] was 10. The same compound displayed a blood lactate in data set [2] of 7.1 mmol/L. In addition, the gastrointestinal side effects result in data set [3] was “Besides light belching, no other gastrointestinal side effects were noted”. In addition, the gastrointestinal tract symptoms result in data set [3] (subject, trained, 5 g administered) is on record as “did not experience any unwanted gastrointestinal tract issues except a little belching”. Also, the “onset of gastrointestinal distress” value in data set [3] (up to 20 grams orally administered to subjects) was “without onset of gastrointestinal distress”.
With `CN(CC(=O)O)C(=N)N.O` [creatine monohydrate, reference compound], the “knee extensions performed at 80% maximum weight (200 lbs.)” value in data set [1] is on record as 8. Further, the gastrointestinal side effects result in data set [3] is “gastrointestinal disturbances, such as diarrhea and stomach bloating, occurred”.
